Experimental data taken from patent publication US11008332B2, “Pharmaceutical composition for preventing or treating aging-related diseases containing decursin derivative as active ingredient” (PRG S&TECH INC., priority 2017, dated 2021).

Columns and labels:
Lmna^wt/G609G mice = assay: Life span and morphology of Lmna^wt/G609G mice; format: in vivo, mouse
[1] = Liver microsomal stability, human; format: in vitro ADME
Description: (§7) In vitro ADME studies (plasma protein binding, CYP inhibition, microsomal stability, plasma stability and hERG inhibition) were performed by New drug development center though standard protocols.

[2] = Liver microsomal stability, rat; format: in vitro ADME
[3] = test system: Lmna^G609G/G609G, progeria model mouse; assay: Life span, body weight and morphology of Lmna^G609G/G609G progeria model mice; format: in vivo
Description: The experiments were performed in the Association for Assessment and Accreditation of Laboratory Animal Care certified facility, in compliance with animal policies approved by Pusan National University.
Lmna^G609G/609G mice were generated as timed mating of heterozygous Lmna^+/G609G provided by Carlos López-Otin (Universidad de Oviedo, Asturias, Oviedo, Spain).
SLC-D011, mixed with DMOS and PBS, were intraperitoneally injected in mice (20 mg/kg twice per week from 5-week-old). In addition, SLC-D011 dissolved at a concentration of 10 mg/ml in monoolein-based solution was orally administrated to mice in 5 times a week and control mice were treated in the same conditions by administering monoolein-based solution alone.
Lmna^G609G/609G mice were treated with clear chemical solution throughout life span, starting from 5 weeks of age. Lmna^+/G609G were treated via intraperitoneal, starting from 32 weeks of age.

HGPS cells = assay: Immunofluorescence staining of HGPS cells (nuclear morphology, progerin, H3K9me3); format: cell-based, Human
Description: (§1) Human fibroblast cells from HGPS patients (AG03198, person; AG03199; person), WS patients (AG06300, person; AG03141, person; AG00780, person) and controls (GM 00038, person) were obtained from the Coriell Cell Repositories (Camden, N.J., USA) and were maintained in EMEM, containing 15% FBS, 2 mM glutamine or HEMEM with 26 mM HEPES without antibiotics.
(§2) Cells were seeded on a cover glass and transfected with the indicated vectors.
(§3) After fixing with 100% methanol or 1% paraformaldehyde (PFA) for 1 h at 4° C., cells were incubated with blocking buffer (PBS+anti-human-Ab; 1:400) for 1 h.
(§4) After washing with PBS twice, cells were incubated with anti-Lamin A/C, Progerin or H3K9Me3 in blocking buffer (1:200) overnight and sequentially with anti-goat Ab-FITC or anti-rabbit Ab-rhodamin in blocking buffer (1:500) for 7 h and mounted, and nucleus was stained with DAPI. Thereafter Immunofluorescence signal was detected by fluorescence microscopy (Zeiss and Logos).
(§5) For counting nuclear deformed cell, obtained immunofluorescence images were used. Nuclear membrane showing abnormalities, dependent on Lamin A staining, were counted from randomly selected field. Counted cells were calculated percentage.

Plasma protein [4] = assay: Plasma protein binding, human; format: in vitro ADME
Description: as §7

Plasma protein [5] = assay: Plasma protein binding, rat; format: in vitro ADME
Description: as §7

[6] = test system: collagen 1A expression in normal fibroblast; assay: Collagen 1A expression in normal fibroblasts 9N and N46 (Western blot); format: cell-based, human; conditions: normal fibroblast 9N and N46, 2 or 5 μM, 24 hours, FIG. 5B
Description: (§6) Human keratinocyte HaCaT cells and normal fibroblast 9N (GM 00038, person) and N46 (AG13299, person) were treated with 2 or 5 μM SLC-D011 and incubated for 24 hours and then the amount of collagen 1A expression was confirmed in HaCaT cells and fibroblasts was confirmed.

CYP1A2 = biological target: T1, CYP1A2 (Homo sapiens, UniProt P05177); assay: CYP inhibition CYP1A2; format: in vitro ADME
T1 sequence (P05177 1-516): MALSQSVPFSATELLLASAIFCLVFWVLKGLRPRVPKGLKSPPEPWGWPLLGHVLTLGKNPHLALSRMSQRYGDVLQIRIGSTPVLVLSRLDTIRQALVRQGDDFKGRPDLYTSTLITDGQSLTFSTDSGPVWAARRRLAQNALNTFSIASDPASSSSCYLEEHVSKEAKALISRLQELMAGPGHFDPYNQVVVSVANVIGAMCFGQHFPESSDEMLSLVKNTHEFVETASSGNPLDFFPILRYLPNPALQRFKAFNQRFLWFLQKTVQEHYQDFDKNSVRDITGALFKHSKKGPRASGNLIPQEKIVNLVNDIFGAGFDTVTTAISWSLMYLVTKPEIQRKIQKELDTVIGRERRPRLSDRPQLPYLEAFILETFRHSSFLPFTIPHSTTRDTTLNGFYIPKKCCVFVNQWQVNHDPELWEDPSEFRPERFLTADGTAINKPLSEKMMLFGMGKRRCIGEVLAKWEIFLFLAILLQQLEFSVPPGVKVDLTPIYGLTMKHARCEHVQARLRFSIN
Description: as §7

[7] = test system: collagen 1A expression in HaCaT cells; assay: Collagen 1A expression in HaCaT cells (Western blot); format: cell-based, human; conditions: 2 or 5 μM, 24 hours, FIG. 5A
Description: as §6

hERG ion channel = hERG ion channel (Homo sapiens, UniProt Q12809); assay: hERG inhibition (in vitro ADME); conditions: in vitro ADME analysis, FIG. 2B
Water solubility = format: physicochemical
[8] = Liver microsomal stability, mouse; format: in vitro ADME
CYP2C9 = CYP2C9 (Homo sapiens, UniProt P11712); assay: CYP inhibition CYP2C9; format: in vitro ADME
Description: as §7

CYP2C19 = CYP2C19 (Homo sapiens, UniProt P33261); assay: CYP inhibition CYP2C19; format: in vitro ADME
Description: as §7

[9] = Stability in monoolein-based solution on heating and sonication (LC-MS); format: physicochemical; conditions: heating at 80° C. and sonication, FIG. 3B
WS cells = assay: Immunofluorescence staining of Werner syndrome (WS) patient cells (nuclear morphology, proliferation, H3K9me3); format: cell-based, Human
Description: as §1, §2, §3, §4, §5
To measure the cell proliferation, DAPI stained cells were counted from immunofluorescence images.

[10] = Lmna^wt/G609G mice, injection started from 43 weeks old, FIG. 2E
[11] = Lmna^G609G/G609G mice, 20 mg/kg i.p injection twice per week from 5 week age, FIG. 2C
[12] = Lmna^G609G/G609G mice, oral gavage 50 mg/kg daily in monoolein solution from 5 weeks old, FIG. 3C

Chain of CYP2C9 (P11712 whole entry): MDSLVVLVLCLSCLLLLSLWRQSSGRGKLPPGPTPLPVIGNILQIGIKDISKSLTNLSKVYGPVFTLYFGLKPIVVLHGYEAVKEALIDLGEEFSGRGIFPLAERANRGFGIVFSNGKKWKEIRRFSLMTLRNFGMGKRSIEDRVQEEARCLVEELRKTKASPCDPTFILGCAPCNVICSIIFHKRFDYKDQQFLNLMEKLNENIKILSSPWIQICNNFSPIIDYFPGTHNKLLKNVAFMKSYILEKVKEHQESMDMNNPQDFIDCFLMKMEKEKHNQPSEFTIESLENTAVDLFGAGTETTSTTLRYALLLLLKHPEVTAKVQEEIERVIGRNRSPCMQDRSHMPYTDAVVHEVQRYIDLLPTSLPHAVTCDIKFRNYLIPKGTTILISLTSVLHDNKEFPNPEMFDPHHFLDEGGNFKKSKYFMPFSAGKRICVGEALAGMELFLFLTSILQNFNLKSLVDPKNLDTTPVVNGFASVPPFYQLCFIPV
Chain of hERG ion channel (Q12809 whole entry): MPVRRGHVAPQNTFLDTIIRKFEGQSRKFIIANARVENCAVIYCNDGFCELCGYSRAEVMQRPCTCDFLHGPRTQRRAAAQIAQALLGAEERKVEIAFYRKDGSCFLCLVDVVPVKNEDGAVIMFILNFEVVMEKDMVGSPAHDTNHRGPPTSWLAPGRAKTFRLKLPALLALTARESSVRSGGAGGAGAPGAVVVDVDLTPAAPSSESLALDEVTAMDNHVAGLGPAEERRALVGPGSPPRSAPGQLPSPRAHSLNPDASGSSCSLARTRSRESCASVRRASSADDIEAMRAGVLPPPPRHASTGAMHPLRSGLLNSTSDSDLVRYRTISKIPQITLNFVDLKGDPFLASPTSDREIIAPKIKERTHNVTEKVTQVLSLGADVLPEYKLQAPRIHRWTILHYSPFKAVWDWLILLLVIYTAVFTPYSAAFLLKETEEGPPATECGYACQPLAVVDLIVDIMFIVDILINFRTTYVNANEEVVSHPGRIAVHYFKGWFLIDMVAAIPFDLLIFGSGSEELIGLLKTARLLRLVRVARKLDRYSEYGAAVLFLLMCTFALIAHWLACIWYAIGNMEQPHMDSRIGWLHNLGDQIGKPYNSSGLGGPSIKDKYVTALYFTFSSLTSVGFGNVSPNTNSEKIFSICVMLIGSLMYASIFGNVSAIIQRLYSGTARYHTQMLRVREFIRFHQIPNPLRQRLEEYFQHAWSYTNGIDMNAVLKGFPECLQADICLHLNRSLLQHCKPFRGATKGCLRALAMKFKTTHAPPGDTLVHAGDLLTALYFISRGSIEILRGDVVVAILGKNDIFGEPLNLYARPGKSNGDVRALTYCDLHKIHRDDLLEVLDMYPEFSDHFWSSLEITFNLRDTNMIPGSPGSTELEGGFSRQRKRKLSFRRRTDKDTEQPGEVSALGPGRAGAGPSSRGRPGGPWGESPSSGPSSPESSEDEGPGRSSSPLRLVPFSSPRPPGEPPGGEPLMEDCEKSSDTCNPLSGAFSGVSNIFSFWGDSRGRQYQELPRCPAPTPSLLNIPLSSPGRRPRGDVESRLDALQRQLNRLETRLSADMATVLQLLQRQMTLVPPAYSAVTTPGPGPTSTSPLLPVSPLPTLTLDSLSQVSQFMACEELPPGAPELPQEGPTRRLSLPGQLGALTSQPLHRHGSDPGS
Chain of CYP2C19 (P33261 whole entry): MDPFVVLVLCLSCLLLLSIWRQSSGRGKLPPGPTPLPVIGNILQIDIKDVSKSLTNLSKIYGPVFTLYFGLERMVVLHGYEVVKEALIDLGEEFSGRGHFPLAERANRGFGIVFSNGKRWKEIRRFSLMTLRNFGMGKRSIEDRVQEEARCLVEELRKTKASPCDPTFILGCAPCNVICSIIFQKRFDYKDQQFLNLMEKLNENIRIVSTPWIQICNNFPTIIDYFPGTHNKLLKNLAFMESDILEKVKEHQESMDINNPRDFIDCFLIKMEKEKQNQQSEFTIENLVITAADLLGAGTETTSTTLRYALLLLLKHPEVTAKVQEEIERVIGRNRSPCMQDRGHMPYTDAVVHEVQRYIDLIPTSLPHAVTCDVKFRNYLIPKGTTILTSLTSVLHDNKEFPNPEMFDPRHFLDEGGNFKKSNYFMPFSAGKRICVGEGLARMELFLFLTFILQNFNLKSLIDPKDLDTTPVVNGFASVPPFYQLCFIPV

Question: With `CC1(C)Oc2cc3oc(=O)ccc3cc2C[C@@H]1OC/C=C/c1ccccc1` [SLC-D011, (7S)-(+)-8,8-dimethyl-7-(3-phenyl-allyloxy)-7,8-dihydro-6H-pyrano[3,2-g]chromen-2-one] as the molecule, how does the “lifespan extended from 45 to” value (Lmna^wt/G609G mice; Lamn^wt/G609G model) read?
Answer: 64 weeks

Question: And the average life span (Lmna^wt/G609G mice; [10])?
Answer: 65 weeks

Question: What about the “maximum (max) life span” value (Lmna^wt/G609G mice; [10]) of the same molecule?
Answer: 66 weeks

Question: What about the “morphology such as hair condition and body size” value (Lmna^wt/G609G mice; Lmna^wt/G609G mouse, FIG. 2F) of the same molecule?
Answer: greatly improved

Question: What about the “Liver microsomal stability (% remaining during 30 min) Human (%)” value [1] of the same molecule?
Answer: 21.5%

Question: What about the “Liver microsomal stability (% remaining during 30 min) Rat (%)” value [2] of the same molecule?
Answer: 17.4%

Question: What about the “life-span extended to” value ([3]; Lamn^G609G/G609G mice, i.p injection) of the same molecule?
Answer: 20 weeks

Question: What about the “body size and gross morphology” value ([3]; Lamn^G609G/G609G mice, i.p injection, FIG. 2D) of the same molecule?
Answer: body size increase and gross morphology were also improved

Question: What about the lifespan extension ([3]; Lamn^G609G/G609G mice, oral administration in olein-based solution) of the same molecule?
Answer: 4.5 weeks

Question: What about the “average (ave) life span” value [3, 11] of the same molecule?
Answer: 19.5 weeks

Question: What about the “maximum (max) life span” value [3, 11] of the same molecule?
Answer: 21 weeks

Question: And the “body weight increase compared to vehicle group” value ([3]; Lmna^G609G/G609G mice, oral administration, FIG. 3D)?
Answer: about 35%

Question: What about the “body size at 8 weeks old” value ([3]; Lmna^G609G/G609G mice, oral administration, FIG. 3E) of the same molecule?
Answer: apparently larger than that of vehicle-mouse

Question: And the average life span [3, 12]?
Answer: 19.3 weeks

Question: What about the maximum life span [3, 12] of the same molecule?
Answer: 19.5 weeks

Question: And the “nuclear abnormality of HGPS cells” value (HGPS cells; HGPS cells incubated 48 hr, FIG. 1E)?
Answer: improved nuclear abnormality of HGPS cells

Question: And the “progerin expression in HGPS cells” value (HGPS cells; HGPS cells incubated 48 hr, progerin staining, FIG. 1E)?
Answer: reduces progerin expression

Question: What about the “H3K9me3 expression in HGPS cells” value (HGPS cells; immunostaining, FIG. 1F) of the same molecule?
Answer: induced H3K9me3 expression

Question: What about the “Plasma protein binding Human (% Bound)” value (Plasma protein [4]) of the same molecule?
Answer: 99.9 % Bound

Question: What about the “Plasma protein binding Rat (% Bound)” value (Plasma protein [5]) of the same molecule?
Answer: 99.8 % Bound

Question: And the “collagen expression in fibroblasts” value [6]?
Answer: increasing collagen expression

Question: And the “CYP inhibition CYP1A2” value (CYP1A2)?
Answer: 81.6

Question: And the “collagen expression in keratinocytes” value [7]?
Answer: increasing collagen expression

Question: And the “hERG ion channel inhibition” value (hERG ion channel)?
Answer: severe hERG inhibition was not observed

Question: And the water solubility (Water solubility)?
Answer: very low water solubility

Question: And the “Liver microsomal stability (% remaining during 30 min) Mouse (%)” value [8]?
Answer: 59.7%

Question: What about the “CYP inhibition CYP2C9” value (CYP2C9) of the same molecule?
Answer: 78.4

Question: And the “CYP inhibition CYP2C19” value (CYP2C19)?
Answer: 28.8

Question: What about the “stability in solution on heating and ultrasonic treatment” value [9] of the same molecule?
Answer: stable without being decomposed even by heating and ultrasonic treatment

Question: And the “nuclear morphology of WS cells” value (WS cells; WS cells incubated 48 hr, FIG. 4F)?
Answer: improved nuclear morphology

Question: What about the “H3K9me3 expression in WS cells” value (WS cells; WS cells incubated 48 hr, FIG. 4G) of the same molecule?
Answer: induced expression of H3K9me3

Question: What about the “cell proliferation of WS cells” value (WS cells; WS patient cells, FIG. 4F) of the same molecule?
Answer: improved nuclear morphology and cell proliferation
